# Experimental data from patent publication US12285393B2, “Roles of modulators of intersectin-Cdc42 signaling in Alzheimer's disease” (priority 2017, dated 2025).
# Columns and labels:
# [1] = test system: Swiss 3T3 cells; experiment: Immunofluorescence, cell morphology and bradykinin-mediated activation; assay type: cell-based; settings: for changes to cell morphology: after 4 h of treatment, more drastic after six hours
# Method: Immunofluorescence: Serum-starved Swiss 3T3 cells were pretreated with compound for 2 h before the addition of bradykinin (100 ng/mL) for 20 min. Cells were fixed in 4% paraformaldehyde for 15 min at RT and stored in PBS. Fixed cells were treated with 0.5% Triton for 30 min at RT, 100 mM Glycine 30 min at RT, and 10% BSA for 30 min at 37° C. Primary antibody for GM130 (1:1000, BD Biosciences, Franklin Lakes, New Jersey, United States of America) was used to probe for 1 h at RT followed by CY3-conjugated secondary antibody (1:1000) for 1 h at RT in the dark. Actin was stained with fluorescein-conjugated phalloidin (1:300). Hoechst (1:2500) was used to stain the nuclei. Coverslips were mounted onto slides using antifade medium from Life Technologies (Carlsbad, California, United States of America). Images were taken with a Zeiss Axiovert S100 microscope (Carl Zeiss; Thornwood, New York, United States of America).
# [2] = test system: C57BL/6 mice; experiment: Toxicity experiment, I.P. injection; assay type: in vivo; settings: 5 minutes to 24 hours
# Method: (§1) ZCL 278 Toxicity Experiment: Individual C57BL/6 mice of 4-6 months of age from Jackson Laboratory (Bar Harbor, Maine, United States of America) were submitted to ZCL278 treatment for 5 minutes, 30 minutes, 2 hours and 24 hours. The dosage of ZCL278 for each mouse was 0.8 mg/g body weight delivered via intraperitoneal (I.P.) injection of a 15 mg/ml solution of ZCL278 was dissolved in the sesame oil (10% DMSO).
# as §1, with “279” for “278”, “ZCL279” for “ZCL278”, “0.6” for “0.8”
# ZCL367 Toxicity Experiment: Individual C57BL/6 mice of 4-6 months of age from Jackson Laboratory (Bar Harbor, Maine, United States of America) were submitted to ZCL367 treatment for 1 hour or 2 weeks. The dosage of ZCL367 for each time period was 0.4 mg/g body weight or 0.8 mg/g body weight, delivered via I.P. injection. […] Mice were sacrificed after end of 1 hour or 2 weeks.
# [3] = test system: WT and 3×Tg-AD mice; experiment: Eyeblink classical conditioning test; assay type: in vivo
# Source text: Six-month-old C57/BL6 (WT) and 3×Tg-AD mice with an average weight of 24 g from Jackson Laboratory (Bar Harbor, Maine, United States of America) were used. The 3×Tg-AD mice in hybrid 129/C57BL/6 background contain two mutant human transgenes, hAPP harboring Swedish mutation (hAPPswe) and mutant htau (htau301L) under a neuron-specific promoter, and also contain the knock-in mutant presenilin 1 (PS1M146V). See Oddo et al. (2003) Neuron 39:409-421). 3×Tg-AD mice were received from Jackson Laboratory as Psen1 B6:129-Psen1<tmMpm>Tg(APPSwetauP301L)1Lfa/J and the wild type control as SF2: (B6129SF1/J+p+Tyr-c+Mgf-SIJ)F2. All mice were subjected to two weeks of training for familiarizing behavioral test procedures. Subsequently, mice were assayed to establish a baseline of behavior tests before ZCL compound treatment. Then, mice were separated into three treatment groups (Control, ZCL278 and ZCL279). Both ZCL278 and ZCL279 were dissolved in sesame oil with 5% DMSO and each treatment was administrated via an intraperitoneal injection. All treatment groups of mice were treated once a week. Control group was treated with 130 μl 5% DMSO in sesame oil. ZCL278 and ZCL279 groups were treated with 20 μg/g ZCL 278 or ZCL 279 in sesame oil (5% DMSO). On the day following drug treatment, all mice were subjected to a burrowing test, nesting test and contact avoidance evaluations. On the 4th week of experiment, selected female mice from each group were submitted to Morris water maze test and eye blink test.
# Eye blinking test: Eyeblink classical conditioning (ECC) behavior testing was performed based on a method described previously. See Rufer et al., PLoS One, 2012, 7(10):e47499; and Thomas & Tran, Hippocampus, 2012, 22:619-630. Briefly, the day after ZCL compound treatment, two stainless steel recording electrodes (3T, Medwire, Mount Vernon, New York, United States of America) were implanted in the left orbicularis oculi muscle in all mice, and a bipolar stimulating electrode adjacent to the left eye. […]
# [4] = target: Cdc42 (Homo sapiens, UniProt P60953); experiment: mant-GTP binding to Cdc42 with or without GEF/DH domain; assay type: biochemical; design: purchased Cytoskeleton Inc; settings: 5-500 μM
# Cdc42, sequence (P60953 whole entry, the tested form may be a part): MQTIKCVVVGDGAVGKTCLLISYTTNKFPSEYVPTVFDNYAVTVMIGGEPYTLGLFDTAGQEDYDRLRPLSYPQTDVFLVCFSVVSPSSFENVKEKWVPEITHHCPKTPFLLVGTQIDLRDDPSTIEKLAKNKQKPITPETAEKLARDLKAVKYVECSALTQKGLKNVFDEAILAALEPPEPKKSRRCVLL
# Method: Cdc42 (1 μM) was incubated with mant-GTP (1.5 μM) and varying concentrations of ZCL278, ZCL279, or ZCL367 (5-500 μM). Fluorescent readings were taken every minute for 10 m to acquire the baseline. The GEF/DH domain (0.08-0.2 μM) was added followed by readings taken every minute for another 30 m. The linear phase was calculated from within the time period of 12-22 m. Cdc42 (1 μM) was incubated with mant-GTP (1.5 μM) and varying concentrations of ZCL278, ZCL279, or ZCL367 (5-500 μM). Fluorescent readings were taken every minute for 30 m to monitor the binding of mant-GTP in the absence of GEF/DH domain.
Compound,kind of morphology change ([1]; Swiss 3T3 cells),"bradykinin-mediated activation ([1]; Swiss 3T3 cells, bradykinin 100 ng/mL)",changes to cell morphology [1],"gross anatomic toxicity (plasma, liver, kidney and brain tissues) ([2]; 0.8 mg/g body weight I.P.)",CR percentage ([3]; WT mice),effect on Cdc42 (mant-GTP binding) ([4]; in the absence of GEF domain),effect on Cdc42 (mant-GTP binding) ([4]; in the presence of GEF domain),"gross anatomic toxicity (plasma, liver, kidney and brain tissues) ([2]; 0.6 mg/g body weight I.P.)","CR percentage ([3]; AD mice, after 6 training sessions (control AD mice about 20%))"
"Cc1cc(C)nc(NS(=O)(=O)c2ccc(NC(=S)NC(=O)COc3ccc(Br)cc3Cl)cc2)n1 [ZCL278, 4-(3-(2-(4-bromo-2-chloro-phenoxy)-acetyl)-thioureido)-N-(4,6-dimethylpyrimidin-2-yl)-benzenesulfonamide]",increase in ramification,inhibit bradykinin-mediated activation,significant changes to cell morphology,no gross anatomic toxicity,did not significantly change,activates Cdc42,acts as an inhibitor,–,–
"O=S(=O)(Nc1ccccc1O)c1ccc2oc3ccc(S(=O)(=O)Nc4ccccc4O)cc3c2c1 [ZCL279, N^2,N^8-bis(2-hydroxyphenyl)dibenzo[b,d]furan-2,8-disulfonamide]",reduction in cell body size and formation of elongated processes,–,significant changes to cell morphology,–,did not significantly change,has no effect,activates Cdc42,no gross anatomic toxicity,about 35%
